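All cell lines were grown in 96-well plates and treated with compound for 48 hours. GI50 is the concentration that inhibits growth by half.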 Calls of active or inactive are those of the source. Cut-off read from the data, not from the text of the source: active = GI50 up to about 1.1 µM and inactive = higher.
What was measured:
Test in all cases: inhibition of tumour cell growth, NCI panel, 48 h
LOX IMVI = test system: LOX IMVI
HL-60 = test system: HL-60
NCI/ADR-RES = test system: NCI/ADR-RES
Hs-578T = test system: Hs-578T
MCF7 = test system: MCF7
HOP-92 = test system: HOP-92
MDA-N = test system: MDA-N
MDA-MB-231 = test system: MDA-MB-231
PC-3 = test system: PC-3
MDA-MB-435 = test system: MDA-MB-435
DU-145 = test system: DU-145
T47D = test system: T47D
SK-MEL-5 = test system: SK-MEL-5
A549 = test system: A549
SNB-19 = test system: SNB-19
CCRF-CEM = test system: CCRF-CEM
SK-OV-3 = test system: SK-OV-3
HT-29 = test system: HT-29
K562 = test system: K562
HOP-62 = test system: HOP-62
ACHN = test system: ACHN
UACC-257 = test system: UACC-257
786-0 = test system: 786-0
KM12 = test system: KM12
OVCAR-8 = test system: OVCAR-8
OVCAR-5 = test system: OVCAR-5
SK-MEL-28 = test system: SK-MEL-28
SF-268 = test system: SF-268
RPMI-8226 = test system: RPMI-8226
OVCAR-3 = test system: OVCAR-3
NCI-H522 = test system: NCI-H522
M14 = test system: M14
NCI-H460 = test system: NCI-H460
EKVX = test system: EKVX
NCI-H226 = test system: NCI-H226
UACC-62 = test system: UACC-62
SF-295 = test system: SF-295
CAKI-1 = test system: CAKI-1
MOLT-4 = test system: MOLT-4
COLO 205 = test system: COLO 205
OVCAR-4 = test system: OVCAR-4
U-251 = test system: U-251
IGROV-1 = test system: IGROV-1
SW-620 = test system: SW-620
SR = test system: SR
UO-31 = test system: UO-31
SNB-75 = test system: SNB-75
SF-539 = test system: SF-539
HCT-116 = test system: HCT-116
HCT-15 = test system: HCT-15
SK-MEL-2 = test system: SK-MEL-2
A498 = test system: A498
SN12C = test system: SN12C
TK-10 = test system: TK-10
NCI-H23 = test system: NCI-H23
Malme-3M = test system: Malme-3M
HCC 2998 = test system: HCC 2998
BT-549 = test system: BT-549
RXF 393 = test system: RXF 393

## C/C=C/C=C/c1cc2cc3c(c(O)c2c(=O)[nH]1)C1(CC3)C(=O)c2c(O)c3c(c(O)c2C1=O)C(=O)C(OC)=CC3=O (configuration not stated)
LOX IMVI
  GI50: 0.0205 µM (active)
HL-60
  GI50: < 0.01 µM (active)
NCI/ADR-RES
  GI50: 0.283 µM (active)
Hs-578T
  GI50: 0.132 µM (active)
MCF7
  GI50: 0.0681 µM (active)
HOP-92
  GI50: 0.0328 µM (active)
MDA-N
  GI50: 0.267 µM (active)
MDA-MB-231
  GI50: 0.203 µM (active)
PC-3
  GI50: 0.0573 µM (active)
MDA-MB-435
  GI50: 0.303 µM (active)
DU-145
  GI50: 0.378 µM (active)
T47D
  GI50: < 0.01 µM (active)

## O=C(OC[C@H]1C[C@H]2C(=O)CCC[C@H]2O1)c1ccccc1
SK-MEL-5
  GI50: > 100 µM (inactive)
A549
  GI50: > 100 µM (inactive)
LOX IMVI
  GI50: > 100 µM (inactive)
SNB-19
  GI50: > 100 µM (inactive)
CCRF-CEM
  GI50: > 100 µM (inactive)
SK-OV-3
  GI50: > 100 µM (inactive)
HL-60
  GI50: > 100 µM (inactive)
HT-29
  GI50: > 100 µM (inactive)
K562
  GI50: > 100 µM (inactive)
HOP-62
  GI50: > 100 µM (inactive)
ACHN
  GI50: > 100 µM (inactive)
UACC-257
  GI50: > 100 µM (inactive)
NCI/ADR-RES
  GI50: > 100 µM (inactive)
786-0
  GI50: > 100 µM (inactive)
Hs-578T
  GI50: > 100 µM (inactive)
KM12
  GI50: > 100 µM (inactive)
OVCAR-8
  GI50: > 100 µM (inactive)
OVCAR-5
  GI50: > 100 µM (inactive)
SK-MEL-28
  GI50: > 100 µM (inactive)
SF-268
  GI50: > 100 µM (inactive)
RPMI-8226
  GI50: > 100 µM (inactive)
OVCAR-3
  GI50: > 100 µM (inactive)
NCI-H522
  GI50: > 100 µM (inactive)
MCF7
  GI50: > 100 µM (inactive)
M14
  GI50: > 100 µM (inactive)
HOP-92
  GI50: > 100 µM (inactive)
NCI-H460
  GI50: > 100 µM (inactive)
EKVX
  GI50: > 100 µM (inactive)
NCI-H226
  GI50: > 100 µM (inactive)
UACC-62
  GI50: > 100 µM (inactive)
SF-295
  GI50: > 100 µM (inactive)
CAKI-1
  GI50: > 100 µM (inactive)
MOLT-4
  GI50: > 100 µM (inactive)
COLO 205
  GI50: > 100 µM (inactive)
MDA-N
  GI50: > 100 µM (inactive)
OVCAR-4
  GI50: > 100 µM (inactive)
U-251
  GI50: > 100 µM (inactive)
IGROV-1
  GI50: > 100 µM (inactive)
SW-620
  GI50: > 100 µM (inactive)
SR
  GI50: > 100 µM (inactive)
MDA-MB-231
  GI50: > 100 µM (inactive)
PC-3
  GI50: > 100 µM (inactive)
UO-31
  GI50: > 100 µM (inactive)
SNB-75
  GI50: > 100 µM (inactive)
SF-539
  GI50: > 100 µM (inactive)
HCT-116
  GI50: > 100 µM (inactive)
HCT-15
  GI50: > 100 µM
MDA-MB-435
  GI50: > 100 µM (inactive)
SK-MEL-2
  GI50: > 100 µM (inactive)
A498
  GI50: > 100 µM (inactive)
DU-145
  GI50: > 100 µM (inactive)
SN12C
  GI50: > 100 µM (inactive)
TK-10
  GI50: > 100 µM (inactive)
NCI-H23
  GI50: > 100 µM (inactive)
T47D
  GI50: > 100 µM (inactive)

## CN1Cc2cc3cc4c(cc3nc2N(C)C1)OCCO4
SK-MEL-5
  GI50: > 100 µM (inactive)
A549
  GI50: > 100 µM (inactive)
LOX IMVI
  GI50: > 100 µM (inactive)
SNB-19
  GI50: > 100 µM (inactive)
CCRF-CEM
  GI50: > 100 µM (inactive)
SK-OV-3
  GI50: > 100 µM (inactive)
HT-29
  GI50: > 100 µM (inactive)
K562
  GI50: > 100 µM (inactive)
HOP-62
  GI50: > 100 µM (inactive)
ACHN
  GI50: > 100 µM (inactive)
UACC-257
  GI50: > 100 µM (inactive)
NCI/ADR-RES
  GI50: > 100 µM (inactive)
Malme-3M
  GI50: > 100 µM (inactive)
786-0
  GI50: > 100 µM (inactive)
KM12
  GI50: > 100 µM (inactive)
OVCAR-8
  GI50: > 100 µM (inactive)
OVCAR-5
  GI50: > 100 µM (inactive)
SF-268
  GI50: > 100 µM (inactive)
RPMI-8226
  GI50: 54.7 µM (inactive)
HCC 2998
  GI50: > 100 µM (inactive)
NCI-H522
  GI50: > 100 µM (inactive)
MCF7
  GI50: > 100 µM (inactive)
M14
  GI50: > 100 µM (inactive)
HOP-92
  GI50: > 100 µM (inactive)
NCI-H460
  GI50: > 100 µM (inactive)
EKVX
  GI50: > 100 µM (inactive)
NCI-H226
  GI50: > 100 µM (inactive)
UACC-62
  GI50: > 100 µM (inactive)
SF-295
  GI50: > 100 µM (inactive)
CAKI-1
  GI50: > 100 µM (inactive)
MOLT-4
  GI50: 64 µM (inactive)
COLO 205
  GI50: > 100 µM (inactive)
BT-549
  GI50: > 100 µM (inactive)
MDA-N
  GI50: > 100 µM (inactive)
OVCAR-4
  GI50: > 100 µM (inactive)
U-251
  GI50: > 100 µM (inactive)
IGROV-1
  GI50: > 100 µM (inactive)
SW-620
  GI50: > 100 µM (inactive)
MDA-MB-231
  GI50: > 100 µM (inactive)
PC-3
  GI50: > 100 µM (inactive)
SNB-75
  GI50: > 100 µM (inactive)
SF-539
  GI50: > 100 µM (inactive)
RXF 393
  GI50: > 100 µM (inactive)
HCT-116
  GI50: > 100 µM (inactive)
HCT-15
  GI50: > 100 µM
MDA-MB-435
  GI50: > 100 µM (inactive)
SK-MEL-2
  GI50: > 100 µM (inactive)
A498
  GI50: 68.4 µM (inactive)
SN12C
  GI50: > 100 µM (inactive)
TK-10
  GI50: > 100 µM (inactive)

Source: ChEMBL document CHEMBL1201862, “PubChem BioAssay data set” (2004)
